Reference: US12116388B2, “Amylin receptor agonists” (Novo Nordisk A/S, priority 2022, dated 2024)
Starred links: 1 amine or outer side, 2 acyl side, 3 side chain; linkers in the order of their positions; H or OH if unused. Residues, ends and D or L forms follow the SMILES beside them. *: point of attachment. C20 diacid = O=C(O)CCCCCCCCCCCCCCCCCCC(=O)*; C18 diacid = O=C(O)CCCCCCCCCCCCCCCCC(=O)*; γGlu = O=C(O)[C@H](CCC(=O)[*:2])N[*:1]

Each compound was assayed against T1, human calcitonin receptor (hCTR) (Homo sapiens, UniProt P30988) (assay: Human calcitonin receptor (hCTR) in vitro potency assay, CRE-luciferase reporter in BHK cells). Conditions: BHK hCTR/CRE-Luc cells, 3 hours incubation, assay buffer with 1% ovalbumin; read-out: hCalcR potency, EC50.
T1 construct: host or cells: BHK (Baby Hamster Kidney), Hollex-1 cell line
T1 sequence (P30988 25-474): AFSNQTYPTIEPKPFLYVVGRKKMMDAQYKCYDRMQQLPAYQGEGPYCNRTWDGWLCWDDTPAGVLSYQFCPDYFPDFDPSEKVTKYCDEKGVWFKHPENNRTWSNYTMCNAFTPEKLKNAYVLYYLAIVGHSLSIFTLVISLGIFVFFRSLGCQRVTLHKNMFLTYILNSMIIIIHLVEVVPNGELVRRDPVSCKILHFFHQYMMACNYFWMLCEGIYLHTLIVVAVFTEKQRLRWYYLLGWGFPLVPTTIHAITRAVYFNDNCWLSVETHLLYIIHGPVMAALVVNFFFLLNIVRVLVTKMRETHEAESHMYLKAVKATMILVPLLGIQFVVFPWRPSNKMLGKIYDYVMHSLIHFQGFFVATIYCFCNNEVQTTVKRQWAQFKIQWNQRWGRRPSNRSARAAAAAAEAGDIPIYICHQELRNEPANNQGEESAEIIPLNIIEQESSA
Assay type: cell-based
Summary of the method: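 BHK cells stably co-expressing human calcitonin receptor and a CRE-luciferase reporter, seeded the day before, were exposed to 7-fold serial dilutions (7 concentrations, often starting near 10 nM) in DMEM/HEPES/1% ovalbumin buffer for 3 h at 37 °C. Luminescence was then read after SteadyLite Plus addition.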

SMILES | EC50
CC[C@H](C)[C@H](NC(=O)[C@@H]1CCCN1C(=O)CNC(=O)[C@H](Cc1ccccc1)NC(=O)[C@H](Cc1c[nH]cn1)NC(=O)[C@H](Cc1c[nH]cn1)NC(=O)[C@H](CC(C)C)NC(=O)[C@H](Cc1ccccc1)NC(=O)[C@H](CCC(=O)O)NC(=O)[C@H](C)NC(=O)[C@H](CC(C)C)NC(=O)[C@H](CCCNC(=N)N)NC(=O)[C@H](CCC(N)=O)NC(=O)[C@@H](NC(=O)[C@H](CCC(N)=O)NC(=O)[C@H](C)NC(=O)[C@@H](NC(=O)[C@H](CO)NC(=O)[C@H](CC(C)C)NC(=O)[C@H](Cc1c[nH]cn1)NC(=O)[C@H](CO)NC(=O)[C@H](C)NC(=O)CC[C@H](NC(=O)CCCCCCCCCCCCCCCCCCC(=O)O)C(=O)O)[C@@H](C)O)[C@@H](C)O)C(=O)N[C@@H](CC(C)C)C(=O)N1CCC[C@H]1C(=O)N1CCC[C@H]1C(=O)N[C@H](C(=O)N[C@@H](CC(=O)O)C(=O)N[C@H](C(=O)NCC(=O)N[C@@H](CO)C(=O)N[C@@H](CCC(=O)O)C(=O)N[C@H](C(=O)N1CCC[C@H]1C(N)=O)[C@@H](C)O)C(C)C)[C@@H](C)O [Compound 4, N^1-[(4S)-4-carboxy-4-(19-carboxynonadecanoylamino)butanoyl]-[Ala1,Ser2,His3,Leu4,Ser5,Ala7,Gln8,Glu14,His17,Pro25,Pro28,Pro29,Asp31,Glu35,Pro37],des-(19-22)-human amylin] ({C20 diacid-γGlu}-ASHLSTAQTQRLAEFLHHFGPILPPTDVGSETP-NH2) | 1.44 pM
CC[C@H](C)[C@H](NC(=O)[C@H](C)NC(=O)CNC(=O)[C@H](Cc1ccccc1)NC(=O)[C@@H]1CCCN1C(=O)[C@H](CC(=O)O)NC(=O)[C@H](CO)NC(=O)[C@H](CO)NC(=O)[C@H](Cc1c[nH]cn1)NC(=O)[C@H](Cc1c[nH]cn1)NC(=O)[C@H](CC(C)C)NC(=O)[C@H](Cc1ccccc1)NC(=O)[C@H](CCC(=O)O)NC(=O)[C@H](C)NC(=O)[C@H](CC(C)C)NC(=O)[C@H](CCCNC(=N)N)NC(=O)[C@H](CCC(N)=O)NC(=O)[C@@H](NC(=O)[C@H](CCC(N)=O)NC(=O)[C@H](C)NC(=O)[C@@H](NC(=O)[C@H](CO)NC(=O)[C@H](CC(C)C)NC(=O)[C@H](Cc1c[nH]cn1)NC(=O)[C@H](CO)NC(=O)[C@H](C)NC(=O)CC[C@H](NC(=O)CCCCCCCCCCCCCCCCC(=O)O)C(=O)O)[C@@H](C)O)[C@@H](C)O)C(=O)N1CCC[C@H]1C(=O)N[C@@H](CO)C(=O)N[C@@H](CO)C(=O)N[C@H](C(=O)N[C@@H](CC(=O)O)C(=O)N[C@H](C(=O)NCC(=O)N1CCC[C@H]1C(=O)N[C@@H](CC(=O)O)C(=O)N[C@H](C(=O)N1CCC[C@H]1C(N)=O)[C@@H](C)O)C(C)C)[C@@H](C)O [Compound 8, N^1-[(4S)-4-carboxy-4-(17-carboxyheptadecanoylamino)butanoyl]-[Ala1,Ser2,His3,Leu4,Ser5,Ala7,Gln8,Glu14,His17,Asp21,Pro22,Pro27,Asp31,Pro34,Asp35,Pro37]-human amylin] ({C18 diacid-γGlu}-ASHLSTAQTQRLAEFLHHSSDPFGAIPSSTDVGPDTP-NH2) | 1.44 pM
CC[C@H](C)[C@H](NC(=O)[C@H](C)NC(=O)CNC(=O)[C@H](Cc1ccccc1)NC(=O)[C@@H]1CCCN1C(=O)[C@H](CC(=O)O)NC(=O)[C@H](CO)NC(=O)[C@H](CO)NC(=O)[C@H](Cc1c[nH]cn1)NC(=O)[C@H](Cc1c[nH]cn1)NC(=O)[C@H](CC(C)C)NC(=O)[C@H](Cc1ccccc1)NC(=O)[C@H](CCC(=O)O)NC(=O)[C@H](C)NC(=O)[C@H](CC(C)C)NC(=O)[C@H](CCCNC(=N)N)NC(=O)[C@H](CCC(N)=O)NC(=O)[C@@H](NC(=O)[C@H](CCC(N)=O)NC(=O)[C@H](C)NC(=O)[C@@H](NC(=O)[C@H](CO)NC(=O)[C@H](CC(C)C)NC(=O)[C@H](CO)NC(=O)CNC(=O)[C@H](C)NC(=O)CC[C@H](NC(=O)CCCCCCCCCCCCCCCCC(=O)O)C(=O)O)[C@@H](C)O)[C@@H](C)O)C(=O)N1CCC[C@H]1C(=O)N[C@@H](CO)C(=O)N[C@@H](CO)C(=O)N[C@H](C(=O)N[C@@H](CC(=O)O)C(=O)N[C@H](C(=O)NCC(=O)N1CCC[C@H]1C(=O)N[C@@H](CC(=O)O)C(=O)N[C@H](C(=O)N1CCC[C@H]1C(N)=O)[C@@H](C)O)C(C)C)[C@@H](C)O [Compound 10, N^1-[(4S)-4-carboxy-4-(17-carboxyheptadecanoylamino)butanoyl]-[Ala1,Gly2,Ser3,Leu4,Ser5,Ala7,Gln8,Glu14,His17,Asp21,Pro22,Pro27,Asp31,Pro34,Asp35,Pro37]-human amylin] ({C18 diacid-γGlu}-AGSLSTAQTQRLAEFLHHSSDPFGAIPSSTDVGPDTP-NH2) | 1.49 pM
CC[C@H](C)[C@H](NC(=O)[C@@H]1CCCN1C(=O)CNC(=O)[C@H](Cc1ccccc1)NC(=O)[C@H](CC(N)=O)NC(=O)[C@H](CC(=O)O)NC(=O)[C@H](CO)NC(=O)[C@H](CO)NC(=O)[C@H](Cc1c[nH]cn1)NC(=O)[C@H](Cc1c[nH]cn1)NC(=O)[C@H](CC(C)C)NC(=O)[C@H](Cc1ccccc1)NC(=O)[C@H](CCC(=O)O)NC(=O)[C@H](C)NC(=O)[C@H](CC(C)C)NC(=O)[C@H](CCCNC(=N)N)NC(=O)[C@H](C)NC(=O)[C@@H](NC(=O)[C@H](CCC(N)=O)NC(=O)[C@H](C)NC(=O)[C@@H](NC(=O)[C@H](CO)NC(=O)[C@H](CC(C)C)NC(=O)[C@H](Cc1c[nH]cn1)NC(=O)[C@H](CO)NC(=O)[C@H](C)NC(=O)CC[C@H](NC(=O)CCCCCCCCCCCCCCCCC(=O)O)C(=O)O)[C@@H](C)O)[C@@H](C)O)C(=O)N[C@@H](CC(C)C)C(=O)N1CCC[C@H]1C(=O)N1CCC[C@H]1C(=O)N[C@H](C(=O)N[C@@H](CC(=O)O)C(=O)N[C@H](C(=O)NCC(=O)N[C@@H](CO)C(=O)N[C@@H](CC(N)=O)C(=O)N[C@H](C(=O)N1CCC[C@H]1C(N)=O)[C@@H](C)O)C(C)C)[C@@H](C)O [Compound 14, N^1-[(4S)-4-carboxy-4-(17-carboxyheptadecanoylamino)butanoyl]-[Ala1,Ser2,His3,Leu4,Ser5,Ala7,Gln8,Ala10,Glu14,His17,Asp21,Pro25,Pro28,Pro29,Asp31,Pro37]-human amylin] ({C18 diacid-γGlu}-ASHLSTAQTARLAEFLHHSSDNFGPILPPTDVGSNTP-NH2) | 1.63 pM
CC[C@H](C)[C@H](NC(=O)[C@@H]1CCCN1C(=O)CNC(=O)[C@H](Cc1ccccc1)NC(=O)[C@H](Cc1c[nH]cn1)NC(=O)[C@H](Cc1c[nH]cn1)NC(=O)[C@H](CC(C)C)NC(=O)[C@H](Cc1ccccc1)NC(=O)[C@H](CCC(=O)O)NC(=O)[C@H](C)NC(=O)[C@H](CC(C)C)NC(=O)[C@H](CCCNC(=N)N)NC(=O)[C@H](C)NC(=O)[C@@H](NC(=O)[C@H](CCC(N)=O)NC(=O)[C@H](C)NC(=O)[C@@H](NC(=O)[C@H](CO)NC(=O)[C@H](CC(C)C)NC(=O)[C@H](CCC(=O)O)NC(=O)CNC(=O)[C@H](C)NC(=O)CC[C@H](NC(=O)CCCCCCCCCCCCCCCCC(=O)O)C(=O)O)[C@@H](C)O)[C@@H](C)O)C(=O)N[C@@H](CC(C)C)C(=O)N1CCC[C@H]1C(=O)N1CCC[C@H]1C(=O)N[C@H](C(=O)N[C@@H](CC(=O)O)C(=O)N[C@H](C(=O)NCC(=O)N[C@@H](CO)C(=O)N[C@@H](CCC(=O)O)C(=O)N[C@H](C(=O)N1CCC[C@H]1C(N)=O)[C@@H](C)O)C(C)C)[C@@H](C)O [Compound 16, N^1-[(4S)-4-carboxy-4-(17-carboxyheptadecanoylamino)butanoyl]-[Ala1,Gly2,Glu3,Leu4,Ser5,Ala7,Gln8,Ala10,Glu14,His17,Pro25,Pro28,Pro29,Asp31,Glu35,Pro37],des-(19-22)-human amylin] ({C18 diacid-γGlu}-AGELSTAQTARLAEFLHHFGPILPPTDVGSETP-NH2) | 1.03 pM
CC[C@H](C)[C@H](NC(=O)[C@@H]1CCCN1C(=O)CNC(=O)[C@H](Cc1ccccc1)NC(=O)[C@H](Cc1c[nH]cn1)NC(=O)[C@H](Cc1c[nH]cn1)NC(=O)[C@H](CC(C)C)NC(=O)[C@H](Cc1ccccc1)NC(=O)[C@H](CCC(=O)O)NC(=O)[C@H](C)NC(=O)[C@H](CC(C)C)NC(=O)[C@H](CCCNC(=N)N)NC(=O)[C@H](C)NC(=O)[C@@H](NC(=O)[C@H](CCC(N)=O)NC(=O)[C@H](C)NC(=O)[C@@H](NC(=O)[C@H](CO)NC(=O)[C@H](CC(C)C)NC(=O)[C@H](Cc1c[nH]cn1)NC(=O)[C@H](CO)NC(=O)[C@H](C)NC(=O)CC[C@H](NC(=O)CC[C@H](NC(=O)CCCCCCCCCCCCCCCCC(=O)O)C(=O)O)C(=O)O)[C@@H](C)O)[C@@H](C)O)C(=O)N[C@@H](CC(C)C)C(=O)N1CCC[C@H]1C(=O)N1CCC[C@H]1C(=O)N[C@H](C(=O)N[C@@H](CC(=O)O)C(=O)N[C@H](C(=O)NCC(=O)N[C@@H](CO)C(=O)N[C@@H](CCC(=O)O)C(=O)N[C@H](C(=O)N1CCC[C@H]1C(N)=O)[C@@H](C)O)C(C)C)[C@@H](C)O [Compound 17, N^1-[(4S)-4-carboxy-4-[[(4S)-4-carboxy-4-(17-carboxyheptadecanoylamino)butanoyl]amino]butanoyl]-[Ala1,Ser2,His3,Leu4,Ser5,Ala7,Gln8,Ala10,Glu14,His17,Pro25,Pro28,Pro29,Asp31,Glu35,Pro37],des-(19-22)-human amylin] ({C18 diacid-γGlu-γGlu}-ASHLSTAQTARLAEFLHHFGPILPPTDVGSETP-NH2) | 1.15 pM
